What all share (type): cell-based
The test system of one experiment is HL-60. Nature of the experiment: Cell killing in HL-60 by CCK-8. The conditions noted are these: HL-60, 48 h. As for the experimental part: • a) Cell line: HL-60 • b) Procedure • (1) Normally cultured HL-60 cells in the logarithmic growth phase were centrifuged at 800 rpm for 5 min to discard the supernatant. Approximately 3 mL of normal medium was added to resuspend the cell pellet by gently pipetting up and down. The cells were then counted using a cell counter and inoculated onto a 96-well plate. • (2) Sample solutions with different concentration gradients were prepared. Approximately 10 µL of each solution was added to the 96-well plate, with 3 to 6 replicate wells for each concentration, and incubated in a 5% CO2 incubator at 37°C for 48 h. • (3) CCK-8 was equilibrated to room temperature before use, and 10 µL of CCK-8 solution was added to each well. • (4) The plate was incubated in the incubator for 0.5-4 h in the dark, with the incubation time depending on experimental conditions such as cell type and density. • (5) The absorbance was measured at 450 nm using a microplate reader. • c) Data analysis Cell viability = [(As−Ab)/(Ac−Ab)] × 100% [formula] Inhibition% = [(Ac−As)/(Ac−Ab)] × 100% [formula] • As: absorbance of sample well (containing cells + medium + CCK-8 solution + drug solution); • Ac: absorbance of control well (containing cells + medium + CCK-8 solution); • Ab: absorbance of blank well (containing medium + CCK-8 solution); • The results were processed and analyzed using Excel and Graphpad Prism to obtain the IC50. Table 4: Test Results of Cell Killing in HL-60 for 48 h

The next experiment has as its target T1, SSTR2 (Homo sapiens, UniProt P30874).
T1 construct: expressed in transfected cells; host or cells: CHO cells (SSTR2/CHO)
Nature of the experiment: SSTR2 cAMP test. As for the experimental part:
• 1) Compound preparation: The test compound was diluted by 4-fold with DMSO to obtain 10 different concentration points. Approximately 100 nL of the diluted compound was then transferred to a cell reaction plate and centrifuged for later use. • 2) Cell preparation:The cultured SSTR2/CHO cells were collected into a sterile centrifuge tube, and the supernatant was discarded by centrifugation. • 3) The cells were resuspended in assay buffer, counted using a Vi-cell counter, and diluted with assay buffer. • 4) Approximately 100 nL of 100 µM Forskolin was transferred into the cell reaction plate using an Echo and centrifuged. Then, 10 µL of assay buffer containing the cells was added and incubated. • 5) Approximately 10 µL of cAMP detection reagent solution was added to the corresponding wells of the cell reaction plate, and incubated at room temperature in the dark. • 6) The plate was read using a microplate reader. The final value was determined as the ratio of OD at 665 nm to that at 615 nm. • 7) The cAMP value was calculated for each well: Activity (%)=(signal value of sample well - mean signal value of low-signal control wells)/ (mean signal value of high-signal control wells - mean signal value of low-signal control wells). Fitting was performed using the "Nonlinear regression (curve fit)-log(agonist) vs. response -- Variable slope" model in GraphPad Prism 5.0, with the log-transformed compound concentration on the x-axis and cAMP activation rate on the y-axis. The EC50 value of the sample was calculated accordingly. Table 2: SSTR2 cAMP Test Results

A further experiment deals with NCI-H69. As to the kind of experiment: Cell killing in NCI-H69 by CGT (CellTiter-Glo). The conditions noted are these: NCI-H69, 96 h. As to the method: Approximately 5 µL of the PDC was added to the corresponding wells of the plate, and compared with DMSO (control, without the PDC of the present application), PTX, MMAE, and Dxd wells. The final concentration of DMSO in each well was 0.2%; • (5) The cells were incubated in a 5% CO2 incubator at 37°C for 96 h; • (6) The cell culture plate was equilibrated to room temperature, and 50 µL of CellTiter-Glo® Reagent was added to each well; • (7) The plate was placed on a shaker for 2 min to ensure complete cell lysis; • (8) After mixing, the plate was placed at room temperature to react for 10 min. The fluorescence value (in RLU) was read when the signal became stable. • c) Data analysis • (1) The inhibition (Inh %) relative to the DMSO control was calculated as follows: Inhibition (Inh%)= 100 -(RLU of compound - RLU of DMSO control)/ (RLU of DMSO control - RLU of blank)*100% • (2) The data were analyzed using Graphpad 5.0 software. A 4-parameter equation was fitted to generate a concentration-response curve to obtain the IC50. Table 3: Test Results of Cell Killing in NCI-H69
(In ATP-based viability assays light output follows the ATP content of the culture.)

Each structure is given as a SMILES string. *1 amine or outer side, *2 acyl side, *3 side chain or, on linkers, in order; H or OH if unused. Where a SMILES comes first, the peptide text is derived from it. Bridges are numbered along the chain shown (N, C = ends). Roman numbers before positions name the chains, in order. [ ]: non-standard residue; d: D form. The star is where a group is joined. Exatecan = CC[C@@]1(O)C(=O)OCc2c1cc1n(c2=O)Cc2c-1nc1cc(F)c(C)c3c1c2[C@@H](N*)CC3; Hexanoyl(6-succinimido-3yl) = O=C1CC([*:1])C(=O)N1CCCCCC(=O)[*:2]; PEG6 = NCCOCCOCCOCCOCCOCCOCCC(=O)O; NHCH2OCH2CO = O=C(COCN[*:1])[*:2]

T1 sequence (P30874 whole entry): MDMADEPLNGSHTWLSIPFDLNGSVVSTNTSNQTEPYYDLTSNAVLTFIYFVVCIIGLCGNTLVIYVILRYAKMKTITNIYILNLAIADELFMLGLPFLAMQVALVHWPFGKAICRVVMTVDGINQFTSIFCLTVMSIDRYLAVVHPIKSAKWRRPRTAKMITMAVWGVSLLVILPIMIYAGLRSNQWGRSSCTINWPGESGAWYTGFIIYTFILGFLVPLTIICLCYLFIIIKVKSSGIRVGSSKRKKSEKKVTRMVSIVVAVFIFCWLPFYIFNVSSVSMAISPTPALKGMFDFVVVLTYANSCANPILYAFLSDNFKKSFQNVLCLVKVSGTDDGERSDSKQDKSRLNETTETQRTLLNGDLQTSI

In the case of `CC[C@H](C)[C@@H]([C@@H](CC(=O)N1CCC[C@H]1[C@H](OC)[C@@H](C)C(=O)N[C@H](C)[C@@H](O)c1ccccc1)OC)N(C)C(=O)[C@@H](NC(=O)[C@H](C(C)C)N(C)C(=O)OCc1ccc(NC(=O)[C@H](CCCNC(N)=O)NC(=O)[C@@H](NC(=O)CCCCCN2C(=O)CC(SC[C@H](NC(C)=O)C(=O)NCCOCCOCC(=O)N[C@@H](CCCNC(=N)N)C(=O)N[C@@H](CCCNC(=N)N)C(=O)N[C@@H](CC(C)C)C(=O)N[C@@H](Cc3ccccc3)C(=O)N[C@H]3CSSC[C@@H](C(=O)N[C@H](C(=O)N[C@@H](Cc4c[nH]c5ccccc45)C(=O)N[C@@H](CCCNC(=N)N)C(=O)N[C@@H](CC(=O)O)C(N)=O)[C@@H](C)O)NC(=O)[C@H]([C@@H](C)O)NC(=O)[C@H](CCCCN)NC(=O)[C@@H](Cc4c[nH]c5ccccc45)NC(=O)[C@H](Cc4ccc(O)cc4)NC3=O)C2=O)C(C)C)cc1)C(C)C` (single isomer, unassigned) [Example 10, Ac-Cys(MC-Val-Cit-PABC-MMAE)-AEEA-Arg-Arg-Leu-Phe-[Cys-Tyr-D-Trp-Lys-Thr-Cys]-Thr-Trp-Arg-Asp-NH2], in the experiment on HL-60, the “Bottom (Inhibition at Lowest Point)” value is on record as -2.25, half-maximal inhibition (IC50) was put at 187 nM and the “Top (Inhibition at Highest Point)” value is 90.08.

Compound `CC[C@@]1(O)C(=O)OCc2c1cc1n(c2=O)Cc2c-1nc1cc(F)c(C)c3c1c2[C@@H](NC(=O)COCNC(=O)CNC(=O)[C@H](Cc1ccccc1)NC(=O)CNC(=O)CNC(=O)CCCCCN1C(=O)CC(SC[C@H](NC(=O)CCOCCOCCOCCOCCOCCOCCN)C(=O)NCCOCCOCCOCCOCCOCCOCCC(=O)N[C@@H](CCCNC(=N)N)C(=O)N[C@@H](CCCNC(=N)N)C(=O)N[C@@H](CC(C)C)C(=O)N[C@@H](Cc2ccccc2)C(=O)N[C@H]2CSSC[C@@H](C(=O)N[C@H](C(=O)N[C@@H](Cc4c[nH]c5ccccc45)C(=O)N[C@@H](CCCNC(=N)N)C(=O)N[C@@H](CC(=O)O)C(N)=O)[C@@H](C)O)NC(=O)[C@H]([C@@H](C)O)NC(=O)[C@H](CCCCN)NC(=O)[C@@H](Cc4c[nH]c5ccccc45)NC(=O)[C@H](Cc4ccc(O)cc4)NC2=O)C1=O)CC3` (stereo partly drawn) [Example 5, PEG6-Cys(MC-Gly-Gly-Phe-Gly-NH-CH2-Dxd)-PEG6-Arg-Arg-Leu-Phe-[Cys-Tyr-D-Trp-Lys-Thr-Cys]-Thr-Trp-Arg-Asp-NH2] (I: H-[PEG6]C[PEG6]RRLFCY[dW]KTCTWRD-NH2 / II: GGFG[NHCH2OCH2CO]-Exatecan; linker I:2-II:N via Hexanoyl(6-succinimido-3yl); disulfide I:8-I:13) displayed an activity at 50 µM at SSTR2 (Max Dose 50000 nM) of 83.5%. At SSTR2 (SSTR2/CHO cells, Forskolin, cAMP activation rate), the EC50 (usually the concentration giving half of the maximal effect) was found to be 155 nM. For the same compound, in the experiment on NCI-H69, half-maximal inhibition (IC50) required 316 nM.

The values are drawn from patent EP4772530A1, “PEPTIDE TARGETING SOMATOSTATIN RECEPTOR, DRUG CONJUGATE AND USE THEREOF” (Mainline Biosciences (Shanghai) Co., Ltd., priority 2023, dated 2025).
